Several values for one entry are separate records, joined by “and”; a condition that tells them apart may be missing. Equal values may be shown once. Read-outs that look alike come from different tables or passages of the source. A value given as a limit tells only on which side of the number the result lay.

Results on eleven compounds are retold here after publication PMC11091220, “Metabolism-driven in vitro/in vivo disconnect of an oral ERɑ VHL-PROTAC” (Communications Biology, 2024).

One series has as its target T1, ERα (Homo sapiens, UniProt P03372).
T1 construct: endogenous in cells; host or cells: MCF7 (also MCF7 engineered to express Cas9)
T1 sequence (P03372 1-595): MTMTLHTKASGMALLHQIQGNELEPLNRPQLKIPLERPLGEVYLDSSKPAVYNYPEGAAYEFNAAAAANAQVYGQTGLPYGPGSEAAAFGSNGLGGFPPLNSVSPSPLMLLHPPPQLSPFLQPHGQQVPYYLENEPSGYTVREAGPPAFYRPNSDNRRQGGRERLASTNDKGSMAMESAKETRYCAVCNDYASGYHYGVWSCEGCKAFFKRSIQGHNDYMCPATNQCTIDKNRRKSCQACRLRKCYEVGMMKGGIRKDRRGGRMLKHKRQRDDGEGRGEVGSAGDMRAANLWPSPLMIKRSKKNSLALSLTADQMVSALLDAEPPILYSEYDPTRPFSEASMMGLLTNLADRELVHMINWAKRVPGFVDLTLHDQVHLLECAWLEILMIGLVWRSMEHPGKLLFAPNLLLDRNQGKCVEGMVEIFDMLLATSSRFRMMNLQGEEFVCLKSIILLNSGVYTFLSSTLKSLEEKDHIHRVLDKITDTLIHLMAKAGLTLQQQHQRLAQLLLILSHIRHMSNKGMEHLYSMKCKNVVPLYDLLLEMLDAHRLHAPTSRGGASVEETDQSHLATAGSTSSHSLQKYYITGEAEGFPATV
The experiment in a line: ERα high throughput imaging degradation assay in MCF7 cells. The class given is cell-based. As to conditions: for Dmax: MCF7; for DC50: MCF7 cells, 20 to 24 hours; for Degradation vs fulvestrant: listed as Cmp 7. On the procedure:
Cells were fixed, permeabilised and stained with anti-ERα (rabbit clone SP1, Thermo) and anti-PR (mouse clone PgR 636, Dako) antibodies followed by secondary AlexaFluor 594 goat anti-rabbit and AlexaFluor 488 goat anti-mouse IgG antibodies. Imaging was using the Thermo Cellinsight scanner and average fluorescence intensity was analysed using Genedata.

Series [1] addresses T2, recombinant human ERα ligand binding domain (LBD) (Homo sapiens, UniProt P03372).
T2 construct: purchased Invitrogen PV4543
T2 sequence (P03372 311-547 limits assumed): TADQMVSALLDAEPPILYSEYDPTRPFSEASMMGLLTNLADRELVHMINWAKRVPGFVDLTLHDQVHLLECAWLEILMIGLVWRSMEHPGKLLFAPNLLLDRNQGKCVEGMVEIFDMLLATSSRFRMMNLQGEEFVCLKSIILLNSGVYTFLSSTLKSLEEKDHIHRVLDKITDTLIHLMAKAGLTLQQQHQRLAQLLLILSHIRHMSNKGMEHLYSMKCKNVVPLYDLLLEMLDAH
The experiment in a line: ERα binding assay (LanthaScreen TR-FRET competition). How it is done:
The ability of compounds to bind to isolated ERα Ligand binding domain (ERα–LBD (GST)) was assessed in competition assays using a LanthaScreenTM Time-Resolved Fluorescence Resonance Energy Transfer (TR-FRET) detection end-point. For the LanthaScreen TR-FRET endpoint, a suitable fluorophore (Fluormone ES2, Product code P2645) and recombinant human ERα ligand binding domain (LBD) (product code PV4543) were purchased from Invitrogen and used to measure compound binding. A terbium-labelled anti-GST antibody (Product code PV3551) is used to indirectly label the receptor by binding to its GST tag, and competitive binding is detected by a test compounds’ ability to displace the fluorescent ligand resulting in a loss of TR-FRET signal between the Tb-anti-GST antibody and the tracer. The assay was performed with all reagent additions carried out using the Beckman Coulter BioRAPTR FRD microfluidic workstation: […]

Series [2] can be described thus: Mouse hepatocyte intrinsic clearance. The class given is in vitro ADME. Conditions: for hepatocyte CLint at 1 µM: male, CD-1, mouse, hepatocytes. How it is done: Livers from CD-1 male mice weighing 30-35 g were digested and perfused using D-Hanks solution containing EDTA or collagenase. Once digested the liver was transferred to a petri dish and the hepatocytes were prepared by washing and centrifuging with a Leibovitz-15 medium containing 50% isotonic percoll. A cell viability >80% was required to progress the cells. The test compound was prepared to 10 mM in 100% DMSO and further diluted to 100 μM in 100% acetonitrile. The hepatocyte incubations were prepared in Leibovitz’s L-15 Medium pH 7.4 containing 1 million hepatocytes/mL and a final compound concentration of 1 µM. Cell viability was determined using a Cellometer Vision and >80% cell viability was required to proceed with the compound incubation. The compound/cell solution (250 µL) was incubated for 2 h at 37 °C and shaken at 900 rpm on an Eppendorf Thermomixer Comfort plate shaker. Samples (20 µL) were taken at 0.5, 5, 15, 30, 45, 60, 80, 100, and 120 min and quenched with 100 μL of 100% ice-cold acetonitrile. Samples were shaken at 800 rpm for 2 min and centrifuged at 4000 rpm for 20 min at 4 °C to pellet precipitated protein. The supernatant fraction was diluted 1:5 with deionised water, shaken at 1000 rpm for 2 min, and further diluted 1:1 with deionised water. Samples were analysed by LC-MS/MS[17].

In series [3] the target is ESR1-Nanoluciferase fusion protein (Homo sapiens, UniProt P03372). The experiment in a line: ERα nanoluciferase degradation assay. The class given is cell-based. Conditions: for DC50: 24 hours, read-out: ERα nano-luciferase degradation DC50; for IC50: Table 1 source data, mean, read-out: ERa nanocluciferase degradation DC50 (nM), Mean IC50; for Dmax: read-out: ERα nano-luciferase Dmax. On the procedure:
MCF7 pTRIPZ Cas9 cells stably transfected with pSMPNeo dual Luc ESR1 vector (containing ESR1-Nanoluciferase fusion protein/reporter and a Firefly luciferase reporter) were seeded into T175 flasks and incubated for 48 hours in RPMI 1640 media containing 10% (v/v) foetal bovine serum (FBS) and 2 mM L-Glutamine. The cells were then seeded at 20000 cells/well into 384-well plates containing compounds at concentrations ranging from 3.125 µM to 15.9 pM. Following 24 hours incubation (37 °C, 5% CO2), media was removed and ONE-Glow^TM EX luciferase reagent (Promega) was added to each well. Firefly luminescence was measured after 5 minutes using an Envision (PerkinElmer). NanoDLR^TM Stop and Glo® reagent (Promega) was added and incubated for ten minutes (room temperature), before measuring Nano luminescence using the Envision. Wells containing vehicle or 3 µM Fulvestrant were used to normalise data, and degradation of ESR1-Nanoluciferase was analysed using Genedata Screener.

The mark [4] stands for this setting: Table S4 source data, read-out: ERa degradation, Dmax (%).
Setting [5] is: Table S4 source data, mean, read-out: ERa binding, Mean.
[6] abbreviates: pH 7.4, read-out: muHeps (mouse hepatocytes) clearance.
Where [7] appears, read: MCF7, read-out: ERα imaging Dmax, 0% vehicle control, 100% fulvestrant.
[8] abbreviates: mean ± s.d., read-out: ERα binding IC50.
Setting [9] is: 0% vehicle control, 100% fulvestrant, read-out: ERα imaging Dmax.

Sequence of ESR1-Nanoluciferase fusion protein (P40337 whole entry, one chain of several, the tested form may be a part): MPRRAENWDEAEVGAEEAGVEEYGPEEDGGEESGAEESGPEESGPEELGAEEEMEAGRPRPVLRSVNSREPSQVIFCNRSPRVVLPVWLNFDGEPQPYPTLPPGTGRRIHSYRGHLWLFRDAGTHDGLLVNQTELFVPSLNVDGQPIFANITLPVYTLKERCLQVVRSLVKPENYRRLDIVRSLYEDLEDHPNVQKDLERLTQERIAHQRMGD

With `Cc1ncsc1-c1ccc(CNC(=O)[C@@H]2C[C@@H](O)CN2C(=O)[C@@H](NC(=O)COCCCOCCOc2cc(F)c([C@@H]3c4[nH]c5ccccc5c4C[C@@H](C)N3CC(C)(C)F)c(F)c2)C(C)(C)C)cc1` [Compound 10], the Dmax at ERα (setting [4]) is 100%. This compound registered a DC50 at ERα of 0.4 nM. Also, in series [1] (setting [5]), the IC50 stood at 0.5 nM. The hepatocyte CLint at 1 µM in series [2] (pH 7.4, mouse hepatocytes, Table S4 source data, read-out: muHeps, Mean Clint (mL/min/10^6 cells)) worked out at 19 µL/min/1e6 cells; in series [2] (setting [6]), 20 ± 1 µL/min/1e6 cells.
Consider `Cc1ncsc1-c1ccc(CNC(=O)[C@@H]2C[C@@H](O)CN2C(=O)[C@@H](NC(=O)COCCN2CCN(CCOc3cc(F)c([C@@H]4c5[nH]c6ccccc6c5C[C@@H](C)N4CC(C)(C)F)c(F)c3)CC2)C(C)(C)C)cc1` [Compound 6], for which the results for the Dmax (at ERα (setting [7]); in series [3]) were 100 ± 0.5% and 88 ± 1%, respectively. Moreover, the DC50 on ERα came to 0.5 ± 0.4 nM; in series [3] it was 46 ± 27 nM. The IC50 was determined as 1.3 nM in series [1] (setting [8]) and 46 nM in series [3]. Moreover, in series [2] (setting [6]), the hepatocyte CLint at 1 µM is 11 µL/min/1e6 cells.
Compound `Cc1ncsc1-c1ccc(CNC(=O)[C@@H]2C[C@@H](O)CN2C(=O)[C@@H](NC(=O)COCCOCCCCOc2cc(F)c([C@@H]3c4[nH]c5ccccc5c4C[C@@H](C)N3CC(C)(C)F)c(F)c2)C(C)(C)C)cc1` [Compound 9] came in with a DC50 on ERα of 0.5 ± 0.1 nM. The “ERa degradation, Dmax (%)” value at ERα (Table S4 source data) is reported as 100%. For the same compound, the IC50 in series [1] (setting [5]) amounted to 0.6 nM. In addition, in series [2] (mouse hepatocytes, Table S4 source data), the “muHeps, Mean Clint (mL/min/10^6 cells)” value is recorded as 14 mL/min/10^6 cells.
For the compound `Cc1ncsc1-c1ccc(CNC(=O)[C@@H]2C[C@H](O)CN2C(=O)[C@@H](NC(=O)COCCCOCCCOc2cc(F)c([C@@H]3c4[nH]c5ccccc5c4C[C@@H](C)N3CC(C)(C)F)c(F)c2)C(C)(C)C)cc1` [Compound 7], the Degradation vs fulvestrant on ERα (Log M -6.5, MCF7, 24 h) was 64.0% and 68.3%; at ERα (Log M -7.0) it was 68.3% and 71.6% and 59.3% and 58.8%; at ERα (Log M -7.5) it was 65.0% and 59.3% and 59.1% and 57.9%; on ERα (Log M -7.9) it was 65.6% and 48.2% and 57.7% and 56.0%; at ERα (Log M -8.5), 49.3% and 36.8% and 53.9% and 47.6%; on ERα (Log M -9.0) it was 32.2% and 32.7% and 45.9% and 42.5%. Also, the Dmax on ERα (setting [7]) is around 65%. Moreover, the DC50 on ERα is 3.1 nM; in series [3] it was above 3000 nM. Moreover, the IC50 in series [1] (setting [8]) was 1 nM; in series [3], above 3000 nM.
As to `Cc1ncsc1-c1ccc(CNC(=O)[C@@H]2C[C@@H](O)CN2C(=O)[C@@H](NC(=O)COCCOCCOCCOCCOc2cc(F)c([C@@H]3c4[nH]c5ccccc5c4C[C@@H](C)N3CC(C)(C)F)c(F)c2)C(C)(C)C)cc1` [Compound 4], at ERα (setting [9]), the Dmax was found to be 101%. This compound yielded a 50% degradation concentration (DC50) on ERα of 3.2 nM. The IC50 in series [1] (setting [8]) turned out to be 6.3 nM. Further, the hepatocyte CLint at 1 µM in series [2] (setting [6]) turned out to be 41 µL/min/1e6 cells.
With `Cc1ncsc1-c1ccc(CNC(=O)[C@@H]2C[C@@H](O)CN2C(=O)[C@@H](NC(=O)C2(OCCCOCCCOc3cc(F)c([C@@H]4c5[nH]c6ccccc6c5C[C@@H](C)N4CC(C)(C)F)c(F)c3)CC2)C(C)(C)C)cc1` [Compound 13], at ERα (setting [4]), the Dmax turned out to be 96%. In addition, on ERα, it took 2 nM to reach half-maximal degradation (DC50). Besides, the IC50 in series [1] (setting [5]) was 1 nM.
On to `Cc1ncsc1-c1ccc(CNC(=O)[C@@H]2C[C@@H](O)CN2C(=O)[C@@H](NC(=O)COCCOCCOCCOc2cc(F)c([C@@H]3c4[nH]c5ccccc5c4C[C@@H](C)N3CC(C)(C)F)c(F)c2)C(C)(C)C)cc1` [Compound 3], for which the values for the Dmax (at ERα (setting [7]); in series [3]) were 99 ± 2% and 124%, respectively. The DC50 on ERα came out at 0.3 ± 0.1 nM; in series [3], 3.1 nM. For the same compound, the IC50 in series [1] (setting [8]) came out at 0.3 nM; in series [3] it was 3.1 nM. The hepatocyte CLint at 1 µM in series [2] (setting [6]) stood at 31 µL/min/1e6 cells.
`Cc1ncsc1-c1ccc(CNC(=O)[C@@H]2C[C@@H](O)CN2C(=O)[C@@H](NC(=O)COCc2cccc(CCCOc3cc(F)c([C@@H]4c5[nH]c6ccccc6c5C[C@@H](C)N4CC(C)(C)F)c(F)c3)c2)C(C)(C)C)cc1` [Compound 15]: the Dmax on ERα (setting [4]) worked out at 106%. This compound displayed a DC50 at ERα of 14 nM.
On the same counts, the results for `Cc1ncsc1-c1ccc(CNC(=O)[C@@H]2C[C@@H](O)CN2C(=O)[C@@H](NC(=O)COCCCc2cccc(COc3cc(F)c([C@@H]4c5[nH]c6ccccc6c5C[C@@H](C)N4CC(C)(C)F)c(F)c3)c2)C(C)(C)C)cc1` [Compound 14] are 103% and 4.9 nM.
Turning to `Cc1ncsc1-c1ccc(CNC(=O)[C@@H]2C[C@@H](O)CN2C(=O)[C@@H](NC(=O)COCCOc2cc(F)c([C@@H]3c4[nH]c5ccccc5c4C[C@@H](C)N3CC(C)(C)F)c(F)c2)C(C)(C)C)cc1` [Compound 1], at ERα (setting [9]), the Dmax came out at 89 ± 1%. Further, on ERα, half-maximal degradation (DC50) was put at 0.6 ± 1.2 nM. For the same compound, in series [1] (setting [8]), the IC50 was found to be 1.3 nM. Further, the hepatocyte CLint at 1 µM in series [2] (setting [6]) turned out to be 22 µL/min/1e6 cells.
As for `Cc1ncsc1-c1ccc(CNC(=O)[C@@H]2C[C@@H](O)CN2C(=O)[C@@H](NC(=O)COCCOCCOc2cc(F)c([C@@H]3c4[nH]c5ccccc5c4C[C@@H](C)N3CC(C)(C)F)c(F)c2)C(C)(C)C)cc1` [Compound 2], on ERα (setting [9]), the Dmax is 94%. Besides, half-maximal degradation on ERα (DC50) was put at 0.8 nM. The IC50 in series [1] (setting [8]) came out at 0.6 nM. The hepatocyte CLint at 1 µM in series [2] (setting [6]) was 40 µL/min/1e6 cells.
